Patent publication US10392367B2, “IRE1 small molecule inhibitors” (QUENTIS THERAPEUTICS, INC., priority 2017, dated 2019)
pEC50, pIC50: −log10 of the molar value.

What was measured:
[1] = target: T1, IRE1a (Homo sapiens, UniProt O75460); test: IRE1a Endoribonuclease Nanoluciferase Assay (XBP1 luciferase reporter in 293 T cells); type: cell-based; conditions: 293 T cells transfected with XBP1 luciferase reporter plasmid
Method: Compounds disclosed herein were assessed for disruption of IRE1 signaling using a IRE1a Endoribonuclease Nanoluciferase Assay. Briefly, 2.5×10^6 293 T cells were seeded in a 10 cm^2 tissue culture plate. About 24 hours later, the cells were transfected with Effectene. In a 15 mL Tube, the following was added: 2 μg XBP1 luciferase reporter plasmid (PGK-Luc2-P2A-XBP1u-Nanoluciferase-PEST); 300 μl EC buffer; and 16 μl Enhancer, followed by incubation at room temp for 5 minutes. Next, 60 μl Effectene (Qiagen 301427) was added, followed by incubation at room temperature for 10 minutes. 2.6 mL cDMEM media was added. Old media was aspirated from the cells, followed by addition of 7 mL fresh media. Full transfection mixture was added dropwise to cells. Cells were incubated for 6 hours, followed by tripsinization, centrifugation and resuspension in 11 mL media. 100 uL of cells were plated per a well in a 96 well plate. A day later, stressors of choice+/− inhibitors were added. To harvest, media was aspirated from cells completely, then 50 uL 1× passive lysis buffer (Promega: E1941) was added per well and put on shaker (300 rpm) for 30 minutes at room temperature. Cells were centrifuged, and 15 uL sample per well was added to a new, opaque white 384 well plate (Corning 3570). 15 uL OneGlo (nanoluciferase kit, Promega N1630) was added. Plates were spun down, placed on shaker (300 rpm) for 10 minutes. Plates were read on luminometer, 1000 ms integration time per well. 15 uL Stop and Glo (nanoluciferase kit) was added. Plates were spun down, placed on shaker (300 rpm) for 10 minutes. Plates were read on luminometer, 1000 ms second integration time per well. Recordings are provided below in Table 4.

[2] = target: T1, IRE1a; test: In vitro FRET assay (XBP1 RNA probe cleavage by IRE1a); type: biochemical; parameters: purchased SignalChem; conditions: SignalChem IRE1a protein 2 nM
Method: In vitro FRET assay was performed to evaluate the ability of select compounds to inhibit IRE1, the results of which are summarized in Table 3. To perform the in vitro FRET assay, 1× complete assay buffer (CAB; […] DTT, 50 mM sodium citrate pH 7.15, 1 mM magnesium acetate, 0.02% tween 20) was used to dilute SignalChem IRE1a protein to a final concentration of 2 nM. Selected compounds were serially diluted with DMSO in a non-binding black 384-well plate for a total of 15 ul in each well. 2 ul of the serially diluted compound or DMSO control were then added to new wells containing 98 ul of 1×CAB, for a total volume of 100 ul, 10 ul of which were then transferred to wells of a new plate. 5 ul of the diluted IRE1a was then added to each well. 5 ul of a […] XBP1 RNA probe was then added to each well. Fluorescence was then read over 30 minutes in kinetic mode (485/515 nm).
Two RNA probes were used, XBP1 wildtype (SEQ ID NO: 2) which is able to be spliced by active IRE1a or XBP1 mutant (SEQ ID NO: 3) which is unable to be spliced. Each probe contained a 5′ 6-FAM modification and a 3′ IOWA Black FQ modification.

T1 sequence (O75460 19-977): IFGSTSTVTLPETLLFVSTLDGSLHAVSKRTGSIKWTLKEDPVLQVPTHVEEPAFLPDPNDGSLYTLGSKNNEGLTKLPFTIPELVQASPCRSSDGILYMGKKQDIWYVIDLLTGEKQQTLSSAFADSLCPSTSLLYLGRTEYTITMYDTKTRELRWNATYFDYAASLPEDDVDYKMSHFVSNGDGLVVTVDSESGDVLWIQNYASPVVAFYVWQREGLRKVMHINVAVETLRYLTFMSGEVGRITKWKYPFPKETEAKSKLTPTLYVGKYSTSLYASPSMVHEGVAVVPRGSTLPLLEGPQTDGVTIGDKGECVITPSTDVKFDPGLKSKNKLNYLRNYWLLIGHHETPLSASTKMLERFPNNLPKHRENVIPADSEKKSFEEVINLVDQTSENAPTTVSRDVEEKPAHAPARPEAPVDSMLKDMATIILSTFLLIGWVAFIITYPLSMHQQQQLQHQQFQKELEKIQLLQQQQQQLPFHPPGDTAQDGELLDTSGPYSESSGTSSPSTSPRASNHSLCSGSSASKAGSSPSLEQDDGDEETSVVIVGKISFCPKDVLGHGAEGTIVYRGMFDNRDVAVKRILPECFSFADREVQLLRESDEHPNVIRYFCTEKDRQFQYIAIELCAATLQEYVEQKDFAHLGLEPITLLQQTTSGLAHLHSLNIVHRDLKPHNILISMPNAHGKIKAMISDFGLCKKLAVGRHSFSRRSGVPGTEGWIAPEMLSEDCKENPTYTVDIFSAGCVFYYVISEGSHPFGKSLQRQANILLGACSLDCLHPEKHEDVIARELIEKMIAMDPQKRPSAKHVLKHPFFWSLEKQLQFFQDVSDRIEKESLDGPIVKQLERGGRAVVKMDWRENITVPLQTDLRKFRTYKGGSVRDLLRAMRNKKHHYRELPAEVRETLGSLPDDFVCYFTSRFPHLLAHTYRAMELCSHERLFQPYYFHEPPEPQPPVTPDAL

Compound	pEC50 [1]	pIC50 [2]
CCc1cc(-c2cc(NC(=O)Nc3cc(C(F)(F)F)ccc3C(F)(F)F)nn2C)cc2cnc(N[C@H]3CC[C@H](N)CC3)nc12 [Compound 35, 1-(5-(2-(((1r,4r)-4-aminocyclohexyl)amino)-8-ethylquinazolin-6-yl)-1-methyl-1H-pyrazol-3-yl)-3-(2,5-bis(trifluoromethyl)phenyl)urea]	7.30 to 8.30	≥ 8.30
CCc1cc(-c2cc(CC(=O)Nc3ccc(OCCCNC)c(C(F)(F)F)c3)nn2C)cc2cnc(N[C@H]3CC[C@H](N)CC3)nc12 [Compound 37, 2-(5-(2-(((1r,4r)-4-aminocyclohexyl)amino)-8-ethylquinazolin-6-yl)-1-methyl-1H-pyrazol-3-yl)-N-(4-(3-(methylamino)propoxy)-3-(trifluoromethyl)phenyl)acetamide]	7.30 to 8.30	≥ 8.30
CCc1cc(-c2cc(NC(=O)Cc3cccc(C(F)(F)F)c3)nn2C)cc2cnc(N[C@H]3CC[C@H](N(C)C)CC3)nc12 [Compound 39, N-(5-(2-(((1r,4r)-4-(dimethylamino)cyclohexyl)amino)-8-ethylquinazolin-6-yl)-1-methyl-1H-pyrazol-3-yl)-2-(3-(trifluoromethyl)phenyl)acetamide]	7.30 to 8.30	≥ 8.30
CCc1cc(-c2cc(NC(=O)Cc3cccc(C(F)(F)F)c3)nn2C)cc2cnc(N[C@H]3CC[C@H](NCCOC)CC3)nc12 [Compound 40, N-(5-(8-ethyl-2-(((1r,4r)-4-((2-methoxyethyl)amino)cyclohexyl)amino)quinazolin-6-yl)-1-methyl-1H-pyrazol-3-yl)-2-(3-(trifluoromethyl)phenyl)acetamide]	7.00 to 7.30	≥ 8.30
CCc1cc(-c2cc(NC(=O)Cc3cc(C(F)(F)F)ccc3C(F)(F)F)nn2C)cc2cnc(N[C@H]3CC[C@H](NC(C)=O)CC3)nc12 [Compound 41, N-(5-(2-(((1r,4r)-4-acetamidocyclohexyl)amino)-8-ethylquinazolin-6-yl)-1-methyl-1H-pyrazol-3-yl)-2-(2,5-bis(trifluoromethyl)phenyl)acetamide]	< 7.00	< 7.00
CCc1cc(-c2cc(NC(=O)Cc3cc(C(F)(F)F)ccc3C(F)(F)F)nn2C)cc2cnc(N[C@H]3CC[C@H](NC(=O)COC)CC3)nc12 [Compound 42, 2-(2,5-bis(trifluoromethyl)phenyl)-N-(5-(8-ethyl-2-(((1r,4r)-4-(2-methoxyacetamido)cyclohexyl)amino)quinazolin-6-yl)-1-methyl-1H-pyrazol-3-yl)acetamide]	< 7.00	< 7.00
CCc1cc(-c2cc(NC(=O)Cc3cc(C(F)(F)F)ccc3OC)nn2C)cc2cnc(N[C@H]3CC[C@H](N)CC3)nc12 [Compound 43, N-(5-(2-(((1r,4r)-4-aminocyclohexyl)amino)-8-ethylquinazolin-6-yl)-1-methyl-1H-pyrazol-3-yl)-2-(2-methoxy-5-(trifluoromethyl)phenyl)acetamide]	7.30 to 8.30	≥ 8.30
CCc1cc(-c2cc(NC(=O)Cc3cc(C(F)(F)F)ccc3C(F)(F)F)nn2C)cc2cnc(N[C@H]3CC[C@H](NC(=O)CN)CC3)nc12 [Compound 44, 2-amino-N-((1r,4r)-4-((6-(3-(2-(2,5-bis(trifluoromethyl)phenyl)acetamido)-1-methyl-1H-pyrazol-5-yl)-8-ethylquinazolin-2-yl)amino)cyclohexyl)acetamide]	7.00 to 7.30	7.00 to 7.30
